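Values below derive from 48-hour exposures of cells grown in 96-well plates, with endpoints linearly interpolated between the two concentrations bracketing the appropriate inhibition level. TGI denotes the concentration required for complete inhibition of growth.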
Tests used:
Experiment in all cases: NCI-60 cell line screen, 48 h
[1] = tested on: NCI-H522 lung
[2] = tested on: 786-0 renal
[3] = tested on: SF-295 CNS
[4] = tested on: A549 NSCLC
[5] = tested on: COLO 205 colon
[6] = tested on: NCI-H226 lung
[7] = tested on: NCI-H460 lung
[8] = tested on: MDA-MB-435
[9] = tested on: SK-MEL-28 melanoma
[10] = tested on: SK-OV-3 ovarian
[11] = tested on: SW-620 colon
[12] = tested on: SNB-19 CNS
[13] = tested on: MOLT-4 leukemia
[14] = tested on: CCRF-CEM leukemia
[15] = tested on: MCF7 breast
[16] = tested on: OVCAR-5 ovarian
[17] = tested on: K-562 leukemia
[18] = tested on: HS 578T breast
[19] = tested on: TK-10 renal
[20] = tested on: SN12C renal
[21] = tested on: NCI/ADR-RES ovarian
[22] = tested on: SK-MEL-5 melanoma
[23] = tested on: RXF 393 renal
[24] = tested on: A498 renal
[25] = tested on: U251 CNS
[26] = tested on: MDA-N
[27] = tested on: OVCAR-3 ovarian
[28] = tested on: CAKI-1 renal
[29] = tested on: HL-60(TB) leukemia
[30] = tested on: SNB-75 CNS
[31] = tested on: HT29 colon
[32] = tested on: UACC-62 melanoma
[33] = tested on: KM12 colon
[34] = tested on: UACC-257 melanoma
[35] = tested on: PC-3 prostate
[36] = tested on: ACHN renal
[37] = tested on: SF-268 CNS
[38] = tested on: UO-31 renal
[39] = tested on: HOP-92 NSCLC
[40] = tested on: NCI-H23 lung
[41] = tested on: DU-145 prostate
[42] = tested on: M14 melanoma
[43] = tested on: T-47D breast
[44] = tested on: HCC-2998 colon
[45] = tested on: HCT-15 colon
[46] = tested on: MDA-MB-231 breast
[47] = tested on: OVCAR-8 ovarian
[48] = tested on: SK-MEL-2 melanoma
[49] = tested on: SF-539 CNS
[50] = tested on: LOX IMVI melanoma
[51] = tested on: MALME-3M melanoma
[52] = tested on: OVCAR-4 ovarian
[53] = tested on: HCT-116 colon
[54] = tested on: HOP-62 NSCLC
[55] = tested on: EKVX NSCLC
[56] = tested on: BT-549 breast
[57] = tested on: IGROV1 ovarian
[58] = tested on: RPMI-8226 leukemia

## CC1CN=C(c2ccc(CN3CCC(CCCC4CCN(Cc5ccc(C6=NCC(C)N6)cc5)CC4)CC3)cc2)N1 (stereo unspecified)
[1]
  TGI: 70.3 µM
[2]
  TGI: > 100 µM
[3]
  TGI: > 100 µM
[4]
  TGI: > 100 µM
[5]
  TGI: 33 µM
[6]
  TGI: > 100 µM
[7]
  TGI: 36.8 µM
[8]
  TGI: 36.7 µM
[9]
  TGI: > 100 µM
[10]
  TGI: > 100 µM
[11]
  TGI: > 100 µM
[12]
  TGI: 71.5 µM
[13]
  TGI: 50.1 µM
[14]
  TGI: 67.4 µM
[15]
  TGI: 50.3 µM
[16]
  TGI: 63 µM
[17]
  TGI: > 100 µM
[18]
  TGI: > 100 µM
[19]
  TGI: > 100 µM
[20]
  TGI: > 100 µM
[21]
  TGI: > 100 µM
[22]
  TGI: > 100 µM
[23]
  TGI: > 100 µM
[24]
  TGI: > 100 µM
[25]
  TGI: > 100 µM
[26]
  TGI: 38.8 µM
[27]
  TGI: > 100 µM
[28]
  TGI: > 100 µM
[29]
  TGI: > 100 µM
[30]
  TGI: 87.6 µM
[31]
  TGI: > 100 µM
[32]
  TGI: > 100 µM
[33]
  TGI: 40 µM
[34]
  TGI: 45.9 µM
[35]
  TGI: > 100 µM
[36]
  TGI: > 100 µM
[37]
  TGI: > 100 µM
[38]
  TGI: > 100 µM
[39]
  TGI: > 100 µM
[40]
  TGI: > 100 µM
[41]
  TGI: > 100 µM
[42]
  TGI: > 100 µM
[43]
  TGI: > 100 µM
[44]
  TGI: 28.7 µM
[45]
  TGI: > 100 µM
[46]
  TGI: 59.7 µM
[47]
  TGI: > 100 µM
[48]
  TGI: 52.3 µM
[49]
  TGI: > 100 µM
[50]
  TGI: > 100 µM
[51]
  TGI: > 100 µM
[52]
  TGI: 57.1 µM
[53]
  TGI: > 100 µM
[54]
  TGI: > 100 µM
[55]
  TGI: 92 µM
[56]
  TGI: > 100 µM
[57]
  TGI: > 100 µM

## NNS(=O)(=O)c1ccc(/C=C2\NC(=O)NC2=O)cc1
[2]
  TGI: > 100 µM
[3]
  TGI: > 100 µM
[4]
  TGI: > 100 µM
[5]
  TGI: > 100 µM
[6]
  TGI: > 100 µM
[8]
  TGI: > 100 µM
[9]
  TGI: > 100 µM
[10]
  TGI: > 100 µM
[11]
  TGI: > 100 µM
[12]
  TGI: > 100 µM
[13]
  TGI: > 100 µM
[14]
  TGI: > 100 µM
[15]
  TGI: > 100 µM
[16]
  TGI: > 100 µM
[17]
  TGI: > 100 µM
[18]
  TGI: > 100 µM
[19]
  TGI: > 100 µM
[20]
  TGI: > 100 µM
[21]
  TGI: > 100 µM
[22]
  TGI: > 100 µM
[24]
  TGI: > 100 µM
[25]
  TGI: > 100 µM
[26]
  TGI: > 100 µM
[27]
  TGI: > 100 µM
[28]
  TGI: > 100 µM
[29]
  TGI: > 100 µM
[30]
  TGI: > 100 µM
[31]
  TGI: > 100 µM
[32]
  TGI: > 100 µM
[33]
  TGI: > 100 µM
[34]
  TGI: > 100 µM
[35]
  TGI: > 100 µM
[36]
  TGI: > 100 µM
[37]
  TGI: > 100 µM
[38]
  TGI: > 100 µM
[39]
  TGI: > 100 µM
[40]
  TGI: > 100 µM
[41]
  TGI: > 100 µM
[42]
  TGI: > 100 µM
[43]
  TGI: > 100 µM
[44]
  TGI: > 100 µM
[45]
  TGI: > 100 µM
[46]
  TGI: > 100 µM
[47]
  TGI: > 100 µM
[48]
  TGI: > 100 µM
[50]
  TGI: > 100 µM
[51]
  TGI: > 100 µM
[52]
  TGI: > 100 µM
[58]
  TGI: > 100 µM
[53]
  TGI: > 100 µM
[54]
  TGI: > 100 µM
[55]
  TGI: > 100 µM
[56]
  TGI: > 100 µM
[57]
  TGI: > 100 µM
